System: neuronal progenitor cells in the SVZ and the dentate gyrus
Experiment: Proliferation of neuronal progenitor cells (BrdU immunoreactive cell density) in non ischemic adult rats
Type: in vivo, rat
Procedure: Two experiments were performed. In the first experiment, the effects of NO on the proliferation of neuronal progenitor cells in the SVZ and the dentate gyrus of non ischemic adult rats were examined. In the second experiment, the effects of NO on the proliferation of neuronal progenitor cells in the SVZ and in the dentate gyrus of ischemic adult rats were examined.
Male Wistar rats (n=28) weighing 300-350 g were anesthetized with halothane (1-3.5% in a mixture of 70% N2O and 30% O2) using a face mask. The rectal temperature was maintained at 37±1° C. throughout the surgical procedure using a feedback regulated water heating system. The right femoral artery and vein were cannulated with a PE-50 catheter for continuous monitoring of blood pressure and measurement of blood gases (pH, pO2, pCO2) and for drug administration, respectively. DETANONOate was intravenously and intraperitoneally injected to rats.
DETANONO treatment: Rats were randomly divided into four groups. Group 1 (single Rx), rats were intravenously injected with four consecutive bolus doses of DETANONO (0.1 mg/kg each) every fifteen minutes (total dose of 0.4 mg/kg). Group 2 (two Rx group), rats were intravenously injected with four consecutive bolus doses of DETANONO (0.1 mg/kg each) every fifteen minutes (total dose 0.4 mg/kg) and rats received a second treatment at 24 hours later. Group 3 (seven Rx group), rats received four consecutive intravenous bolus doses of DETANONO (0.1 mg/kg each) every fifteen minutes on the first experimental day and rats were intraperitoneally injected with a bolus dose of DETANONO (0.4 mg/kg) daily for an additional six consecutive days. Group 4 (control), rats received saline only (single dose).
Rats received an intraperitoneal injection of BrdU (50 mg/kg) on the first day of DETANONO treatment and daily intraperitoneal injections of BrdU for fourteen consecutive days. To determine whether the proliferation and the differentiation of cells in the SVZ and dentate gyrus of adult rats is affected by NO, rats were sacrificed at fourteen days (n=3-5 per group) and 42 days (n=3-5 per group) after first dose of DETANONO treatment, respectively. Rats were transcardially perfused with 4% paraformaldehyde in 100 mM phosphate buffer, pH 7.4. Brains were removed and fixed in 4% formaldehyde.
For BrdU immunostaining, DNA was first denatured by incubating brain sections (6 μm) in 50% formamide 2×SSC at 65° C. for 2 hours and then in 2N HCl at 37° C. for 30 minutes. Sections were then rinsed with Tris buffer and treated with 1% of H2O2 to block endogenous peroxidase. Sections were incubated with a primary antibody to BrdU (1:100) at room temperature for one hour and then incubated with biotinylated secondary antibody (1:200, Vector, Burlingame, Calif.) for one hour. Reaction product was detected using 3′3′-diaminobenzidine-tetrahydrochloride (DAB, Sigma).
BrdU immunostained sections were digitized under 40× objectively (Olympus BX40) via the MCID computer imaging analysis system (Imaging Research, St. Catharines, Canada). BrdU immunoreactive nuclei were counted on a computer monitor to improve visualization and in one focal plane to avoid over-sampling. Structures were sampled either by selecting predetermined areas on each section (RMS and OB) or by analyzing entire structures on each section (dentate gyrus and SVZ).
Every 40th coronal section was selected from each rat for a total of seven sections between AP+10.6 mm, genu corpus callosum, and AP+8.74 mm-anterior commissure crossing (Paxinos and Watson, 1986). BrdU immunoreactive-positive nuclei were counted in the lateral ventricle wall. All BrdU immunoreactive-positive nuclei in these areas are presented as the number of the BrdU immunoreactive cells/mm^2. Density for the seven sections was averaged to obtain a mean density value for each animal.
Every 20th section was selected from each rat for a total of six sections from the sagittal series of the OB/frontal cortex. […]

NCCN(CCN)/[N+]([O-])=N/O [DETANONO, DETANONOate]
Density of newborn cells, Olfactory bulb (ONCE, 4 weeks after last BrdU injection (42 d), Contralateral): 80 ± 12.3 cells per mm^2
Density of newborn cells, Olfactory bulb (ONCE, 4 weeks after last BrdU injection (42 d), Ipsilateral): 75.65 ± 10.85 cells per mm^2
Density of newborn cells, Rostral migratory stream (ONCE, 4 weeks after last BrdU injection, Left side): 26.25 ± 6.9 cells per mm^2
Density of newborn cells, Rostral migratory stream (ONCE, 4 weeks after last BrdU injection, Right side): 22.5 ± 5.95 cells per mm^2
Density of newborn cells, Olfactory bulb (ONCE, 1 day after last BrdU injection (14 d), Contralateral): 39.75 ± 6.2 cells per mm^2
Density of newborn cells, Olfactory bulb (ONCE, 1 day after last BrdU injection (14 d), Ipsilateral): 41.4 ± 5.55 cells per mm^2
Density of newborn cells, Rostral migratory stream (ONCE, 1 day after last BrdU injection (14 d), Left side): 998.55 ± 59.7 cells per mm^2
Density of newborn cells, Rostral migratory stream (ONCE, 1 day after last BrdU injection (14 d), Right side): 950.25 ± 99.55 cells per mm^2
Density of newborn cells, Olfactory bulb (TWICE, 4 weeks after last BrdU injection (42 d), Contralateral): 98.4 ± 19.95 cells per mm^2
Density of newborn cells, Olfactory bulb (TWICE, 4 weeks after last BrdU injection (42 d), Ipsilateral): 85 ± 15.95 cells per mm^2
Density of newborn cells, Rostral migratory stream (TWICE, 4 weeks after last BrdU injection, Left side): 37.8 ± 5.15 cells per mm^2
Density of newborn cells, Rostral migratory stream (TWICE, 4 weeks after last BrdU injection, Right side): 32.9 ± 8.15 cells per mm^2
Density of newborn cells, Olfactory bulb (TWICE, 1 day after last BrdU injection (14 d), Contralateral): 99.6 ± 10.5 cells per mm^2
Density of newborn cells, Olfactory bulb (TWICE, 1 day after last BrdU injection (14 d), Ipsilateral): 91.65 ± 12.35 cells per mm^2
Density of newborn cells, Rostral migratory stream (TWICE, 1 day after last BrdU injection (14 d), Left side): 1070.85 ± 160.1 cells per mm^2
Density of newborn cells, Rostral migratory stream (TWICE, 1 day after last BrdU injection (14 d), Right side): 991 ± 98.25 cells per mm^2
BrdU immunoreactive cells in OB (non ischemic rats, 42 days after a single set, fourteen and 42 days after two and seven sets, vs control): significant increases
number of BrdU immunoreactive cells in the SVZ, seven doses vs one and two doses (non ischemic rats, fourteen days after treatment): highest number of BrdU immunoreactive cells
numbers of BrdU immunoreactive cells in the RMS (non ischemic rats, fourteen days and 42 days after treatment): did not significantly increase
percentage of distribution of BrdU immunoreactive cells in the dentate gyrus (non ischemic rats, fourteen days and 42 days, vs control): significantly decreases percentage of BrdU immunoreactive cells in subgranular zone and significantly increases in the granule layers
numbers of BrdU immunoreactive cells in the dentate gyrus (non ischemic rats, single treatment, fourteen days and 42 days): did not significantly increase
numbers of BrdU immunoreactive cells in the dentate gyrus (non ischemic rats, two and seven sets, fourteen days and 42 days, vs control): significant (p<0.01) increases
numbers of BrdU immunoreactive cells in the SVZ (non ischemic rats, vs saline at fourteen days and 42 days after treatment): significant (p<0.05) increase
Density of newborn cells, Olfactory bulb (× 7 TIMES, 4 weeks after last BrdU injection (42 d), Contralateral): 100.65 ± 19 cells per mm^2
Density of newborn cells, Olfactory bulb (× 7 TIMES, 4 weeks after last BrdU injection (42 d), Ipsilateral): 84.4 ± 7.1 cells per mm^2
Density of newborn cells, Rostral migratory stream (× 7 TIMES, 4 weeks after last BrdU injection, Left side): 47.5 ± 15.6 cells per mm^2
Density of newborn cells, Rostral migratory stream (× 7 TIMES, 4 weeks after last BrdU injection, Right side): 45 ± 11.35 cells per mm^2
Density of newborn cells, Olfactory bulb (× 7 TIMES, 1 day after last BrdU injection (14 d), Contralateral): 116.55 ± 16.45 cells per mm^2
Density of newborn cells, Olfactory bulb (× 7 TIMES, 1 day after last BrdU injection (14 d), Ipsilateral): 106.25 ± 17.7 cells per mm^2
Density of newborn cells, Rostral migratory stream (× 7 TIMES, 1 day after last BrdU injection (14 d), Left side): 1312.5 ± 265 cells per mm^2
Density of newborn cells, Rostral migratory stream (× 7 TIMES, 1 day after last BrdU injection (14 d), Right side): 1169.4 ± 218.85 cells per mm^2

Source: patent US8383626B2, “Nitric oxide donors for inducing neurogenesis” (Henry Ford Health System, priority 1999, dated 2013)
